According to patent publication EP1134585B1, “Biosensor and method for the monitoring of herbicides” (CONSIGLIO NAZIONALE DELLE RICERCHE, priority 2000, dated 2001):

Key:
D1 protein Phe255->Tyr = D1 protein Phe255->Tyr (Chlamydomonas reinhardtii, UniProt P07753, F255Y); details: code Ar207+; cited from earlier work
[1] = target: D1 protein Phe211→Gly Met214→Gln (Chlamydomonas reinhardtii, UniProt P07753, F211G/M214Q); details: cited from earlier work
D1 protein A1a251->Cys = D1 protein A1a251->Cys (Chlamydomonas reinhardtii, UniProt P07753, A251C); details: cited from earlier work
Thr226->Ala = details: cited from earlier work
I1e229->Ala = details: cited from earlier work
Gly228->Arg = details: cited from earlier work
Phe216->Leu = details: cited from earlier work
PhC2,6―Pro = details: cited from earlier work
I1e229→Met = details: R. capsulatus; cited from earlier work
Ile229->Thr = details: cited from earlier work
Gly228->Val = details: cited from earlier work
Thr226->Met = details: cited from earlier work
[2] = tested on: thylakoids from Amaranthus retroflexus, Mutant; type: biochemical; details: herbicide concentration 10^-6 M
[3] = tested on: thylakoids from Amaranthus retroflexus, Wild-type; assay: Biosensor fluorescence response (Table D), wild-type biomediator; type: biochemical; details: herbicide concentration 10^-6 M
PS II = PS II treated with CdCl2, refrigeration at 5°C, flow 0,2-2,0 ml/m
Description: To further increase the stability of the biomediator the usefulness of a system for the refrigeration of the solution containing herbicide forwarded into the measuring cell experimentally was observed.

Phe216→Ser ValM263→Phe = details: double mutant Phe216→Ser ValM263→Phe, code T3; cited from earlier work
Ile229->Ser = details: cited from earlier work
Ile229->Met~.Met = details: code M29; cited from earlier work
[4] = target: D1 protein Ala250→Ser Phe255→IIe (Chlamydomonas reinhardtii, UniProt P07753, A250S/F255I); details: cited from earlier work
D1 protein Ala250->Asp = D1 protein Ala250->Asp (Chlamydomonas reinhardtii, UniProt P07753, A250D); details: cited from earlier work
Arg217→His Ser223→Ala = details: double mutant Arg217→His Ser223→Ala; cited from earlier work
GluM34->Lys = details: code M6; cited from earlier work
Gly192->Asp = details: cited from earlier work
-Phe216→Ser = details: code T6; cited from earlier work
D1 protein A1a250→IIe = D1 protein A1a250→IIe (Chlamydomonas reinhardtii, UniProt P07753, A250I); details: cited from earlier work
Ser223->Pro = details: code SP223; cited from earlier work
Tyr222->Gly = details: code YG222; cited from earlier work
D1 protein Ser264->Ala = D1 protein Ser264->Ala (Chlamydomonas reinhardtii, UniProt P07753, S264A); details: codes MZ1 MZ3 MZ5; cited from earlier work
Tyr222->Phe = details: code T4; cited from earlier work

SMILES: CNC(=O)N(C)c1nc2ccccc2s1 [Metabenzthiazuron]
- Supersensitivity R/S (D1 protein Phe255->Tyr): zuron 0,3

SMILES: Cc1nnc(-c2ccccc2)c(=O)n1N [Metamitron]
- Supersensitivity R/S [1]: 0,4
- Supersensitivity R/S (D1 protein Phe255->Tyr): Metamitron 0,3

SMILES: COC(=O)Nc1cccc(OC(=O)Nc2cccc(C)c2)c1 [Phenmedipham]
- Supersensitivity R/S (D1 protein A1a251->Cys): 0,8

SMILES: COc1nc(NC(C)C)nc(NC(C)C)n1 [Prometon]
- Resistance R/S (Thr226->Ala): Prometon 1,8
- Resistance R/S (I1e229->Ala): Prometron 1,2
- Resistance R/S (Gly228->Arg): Prometon 1,2
- Resistance R/S (Phe216->Leu): Prometon 1,8
- Resistance R/S (PhC2,6―Pro): Prometon 1,8
- Resistance R/S (I1e229→Met): Prometron 1,2
- Resistance R/S (Ile229->Thr): Prometon 1,2
- Resistance R/S (Gly228->Val): Prometon 1,3

SMILES: CSc1nc(NC(C)C)nc(NC(C)C)n1 [Prometryn]
- Resistance R/S (Thr226->Ala): Prometryn 1,4
- Resistance R/S (Gly228->Arg): Prometryn 1,1
- Resistance R/S (Phe216->Leu): Prometryn 1,4
- Resistance R/S (I1e229→Met): Prometryn 2
- Resistance R/S (Ile229->Thr): Prometryn 1,4
- Resistance R/S (Gly228->Val): Prometryn 1,4
- Resistance R/S (Thr226->Met): Prometryn 1,1

SMILES: CCNc1nc(Cl)nc(NCC)n1 [Simazine]
- Area % inhibition Mutant [2]: 14%
- Area % inhibition Wild-type [3]: 95%
- sensitivity (concentration) (PS II): lower than nanomolar

SMILES: CCNc1nc(NC(C)(C)C)nc(SC)n1 [Terbutryn]
- Resistance R/S (Phe216→Ser ValM263→Phe): Terbutryn 166
- Supersensitivity R/S (Ile229->Ser): Terbutryn 0,4
- Resistance R/S (Thr226->Ala): Terbutryn 1,7
- Supersensitivity R/S (Thr226->Ala): Terbutryn 0,6(?)
- Resistance R/S (Ile229->Met~.Met): Terbutryn 120
- Supersensitivity R/S [4]: 0,9
- Resistance R/S (Gly228->Arg): Terbutryn 1,3
- Supersensitivity R/S (D1 protein Ala250->Asp): Terbutryn 0,4
- Resistance R/S (Arg217→His Ser223→Ala): Terbutryn 222
- Resistance R/S (I1e229→Met): Terbutryn 1,9
- Resistance R/S (GluM34->Lys): Terbutryn > 125
- Resistance R/S (Gly192->Asp): Terbutryn 300
- Resistance R/S (-Phe216→Ser): Terbutryn >2800
- Resistance R/S (Gly228->Val): Terbutryn 1,5
- Resistance R/S (Thr226->Met): Terbutryn 1,7
- Supersensitivity R/S (D1 protein A1a250→IIe): Terbutryn 0,5
- Resistance R/S (Ser223->Pro): Terbutryn >3000
- Resistance R/S (Tyr222->Gly): Terbutryn >3000

SMILES: CC(C)Cc1cc([N+](=O)[O-])cc([N+](=O)[O-])c1O [i-Dinoseb]
- Supersensitivity R/S (D1 protein Ser264->Ala): i-Dinoseb 0,7

SMILES: c1cnc2c(c1)ccc1cccnc12 [o-Phenanthroline]
- Resistance R/S (Phe216→Ser ValM263→Phe): o-Phenathroline 67
- Resistance R/S (Ile229->Ser): o-Phenanthroline 1,3
- Supersensitivity R/S (Thr226->Ala): line 0,03
- Resistance R/S (Ile229->Met~.Met): o-Phenanthro me 11
- Resistance R/S (Arg217→His Ser223→Ala): o-Phenanthroline 5
- Resistance R/S (Tyr222->Phe): o-Phenanthroline 10
- Resistance R/S (GluM34->Lys): o-Phenanthroline >25
- Resistance R/S (Gly192->Asp): o-Phenanthroline 3
- Resistance R/S (-Phe216→Ser): o-Phenanthroline 333
- Resistance R/S (Ser223->Pro): o-Phenanthroline 6,25
- Resistance R/S (Tyr222->Gly): o-Phenanthroline 26
